Data published in US6906205B2, “Spiro and dispiro 1,2,4-trioxolane antimalarials” (Medicines for Malaria Venture MMV, priority 2002, dated 2005).
≈ marks a conversion by molar mass, not a printed value.

Tests used:
[1] = tested on: ANKA strain of P. berghei; experiment: single dose STI in vivo screen in infected mice; design: species or system Plasmodium berghei; details: for Activity (%) po / Survival (days) po: single 10 mg/kg po in 3% ethanol and 7% Tween 80; for Activity (%) po / Activity (%) sc / Activity (%) SSVpo: mice; for Activity (%) sc / Survival (days) sc: single 10 mg/kg sc in 3% ethanol and 7% Tween 80; for Activity (%) SSVpo: single po dose in standard suspending vehicle (SSV); for Survival (days) po / Survival (days) sc / Survival (days) SSVpo: untreated control 5.6 ± 0.3; for Survival (days) SSVpo: single po dose in SSV; for Activity (%) 10 mg/kg SSV po / Survival (days) 10 mg/kg SSV po: single 10 mg/kg po in SSV
Summary of the method: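 Groups of 3-5 Moro SPF or NMRI mice infected with the ANKA strain of P. berghei received a single dose of trioxolane on day one post-infection. The compound was given in 3% ethanol and 7% Tween 80 or in SSV (0.5% w/v CMC, 0.5% v/v benzyl alcohol, 0.4% v/v Tween 80, 0.9% w/v sodium chloride in water). Antimalarial activity was scored as percent reduction in parasitemia on day three and as survival time versus untreated controls. Survival to day 30 counted as cure.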

[2] = tested on: P. falciparum NF54 strain (sensitive to standard antimalarials); experiment: semiautomated microdilution assay, [3H]-hypoxanthine incorporation, NF54 strain; type: cell-based, Plasmodium falciparum; details: NF54 strain, 72 h incubation
Summary of the method: (§1)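 IC50 values come from logit regression of semiautomated microdilution data obtained on intraerythrocytic parasites drawn from asynchronous cultures.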

[3] = tested on: P. falciparum K1 strain (Thailand resistant to chloroquine); experiment: semiautomated microdilution assay, [3H]-hypoxanthine incorporation, K1 strain; type: cell-based, Plasmodium falciparum; details: K1 strain, 72 h incubation
Summary of the method: as §1

[4] = percent reduction in parasitemia day 3 post-infection

| Structure (SMILES) | Activity (%) po [1, 4] [%] | Activity (%) sc [1, 4] [%] | Activity (%) SSVpo [1, 4] [%] | Survival (days) po [1] | Survival (days) sc [1] | Survival (days) SSVpo [1] | IC50 (ng/ml) NF54 [2] | IC50 (ng/ml) K1 [3] | Activity (%) 10 mg/kg SSV po [1, 4] | Survival (days) 10 mg/kg SSV po [1] | IC50 ([2]; Plasmodium falciparum, read-out: IC50 (ng/ml) NF54) [ng/mL] | IC50 ([3]; Plasmodium falciparum, read-out: IC50 (ng/ml) K1) [ng/mL] | Activity (%) 3 mg/kg SSV po ([1]; percent reduction in parasitemia day 3 post-infection, single 3 mg/kg po in SSV) [%] | Survival (days) 3 mg/kg SSV po ([1]; single 3 mg/kg po in SSV) [days] |
| --- | --- | --- | --- | --- | --- | --- | --- | --- | --- | --- | --- | --- | --- | --- |
| O=C1OC2(CCC3(CC2)OOC2(O3)C3CC4CC(C3)CC2C4)c2ccccc21 (stereo not drawn) [OZ149] | 64 | 87 | 3 | 7.7 days | 14.3 days | 6.0 days | 8.8 ng/mL (≈ 23 nM) | 8.0 ng/mL (≈ 20.9 nM) |  |  |  |  |  |  |
| O=C(NO)c1ccc([C@H]2CC[C@]3(CC2)OOC2(O3)C3CC4CC(C3)CC2C4)cc1 (stereo partly drawn) [OZ183] | 65 | 81 | 19 | 6.0 days | 8.3 days | 6.0 days | 2.1 ng/mL (≈ 5.26 nM) | 0.80 ng/mL (≈ 2 nM) |  |  |  |  |  |  |
| c1ccc(CC2(Cc3ccccc3)OOC3(O2)C2CC4CC(C2)CC3C4)cc1 (stereo not drawn) [OZ52] | 88 | 99.7 |  | 6.7 days | 8.0 days |  | 3.0 ng/mL (≈ 7.97 nM) | 3.1 ng/mL (≈ 8.23 nM) |  |  |  |  |  |  |
| CC1(C)CC(NC2CCC3(CC2)OOC2(O3)C3CC4CC(C3)CC2C4)CC(C)(C)N1 (stereo not drawn) [OZ171] | 98 | 99.94 | 85 | 9.0 days | 9.7 days | 7.0 days | 1.4 ng/mL (≈ 3.34 nM) | 1.3 ng/mL (≈ 3.11 nM) |  |  |  |  |  |  |
| O=C(O)c1cn(C[C@H]2CC[C@]3(CC2)OOC2(O3)C3CC4CC(C3)CC2C4)cn1 (stereo partly drawn) [OZ225] | 0 | 17 | 0 | 5.7 days | 6.3 days | 5.7 days | > 10 ng/mL | 7.3 ng/mL (≈ 18.8 nM) |  |  |  |  |  |  |
| N#Cc1ccc(C2(c3ccccc3)OOC3(O2)C2CC4CC(C2)CC3C4)cc1 (stereo not drawn) [OZ124] | 72 | 86 | 17 | 6.3 days | 7.0 days | 5.3 days | 1.7 ng/mL (≈ 4.55 nM) | 2.1 ng/mL (≈ 5.62 nM) |  |  |  |  |  |  |
| COC(=O)c1cncn1C[C@H]1CC[C@]2(CC1)OOC1(O2)C2CC3CC(C2)CC1C3 (stereo partly drawn) [OZ223] | 89 | 99.57 | 79 | 7.3 days | 12.0 days | 6.3 days | > 10 ng/mL | 4.0 ng/mL (≈ 9.94 nM) |  |  |  |  |  |  |
| O=C(C[C@H]1CC[C@]2(CC1)OO[C@]1(O2)C2CC3CC(C2)CC1C3)Nc1nnn[nH]1 [OZ278] |  |  |  |  |  |  | 39 ng/mL (≈ 100 nM) | 23 ng/mL (≈ 59.1 nM) | 56/ND % | 7.3/ND days |  |  |  |  |
| O=C(OC1CCC2(CC1)OOC1(O2)C2CC3CC(C2)CC1C3)n1ccnc1 (stereo not drawn) [OZ147] | 85 | 99.89 | 71 | 8.0 days | 19.7 days | 8.0 days | 1.8 ng/mL (≈ 4.81 nM) | 1.1 ng/mL (≈ 2.94 nM) |  |  |  |  |  |  |
| CCOC(=O)N1C2CCC1CC1(C2)OOC2(O1)C1CC3CC(C1)CC2C3 (stereo not drawn) [OZ110] | 50 | 97.97 | 0 | 6.7 days | 7.7 days | 5.3 days | 2.1 ng/mL (≈ 5.78 nM) | 5.3 ng/mL (≈ 14.6 nM) |  |  |  |  |  |  |
| O=C(O)C1(C(=O)O)COC2(CCC3(CC2)OOC2(O3)C3CC4CC(C3)CC2C4)OC1 (stereo not drawn) [OZ122] | 10 | 0 | 3 | 5.7 days | 5.0 days | 5.3 days | >100/>100 ng/ml | >100/>100 ng/ml |  |  |  |  |  |  |
| O=[N+]([O-])c1ccc(C2(c3ccccc3)OOC3(O2)C2CC4CC(C2)CC3C4)cc1 (stereo not drawn) [OZ95] | 31 | 49 | 0 | 6.0/6.0/6.0 days | 6.0/6.0/6.0 days | 6.0/6.0/6.0 days | 1.3 ng/mL (≈ 3.3 nM) | 2.8 ng/mL (≈ 7.12 nM) |  |  |  |  |  |  |
| CCOC(=O)C1CCC2(CC1)OOC1(O2)C2CC3CC(C2)CC1C3 (stereo not drawn) [OZ70] | 98 | 94 |  | 7.7/NA/7.7 days | 7.7/NA/7.7 days |  |  |  |  |  | 1.1 (≈ 3.27 nM) | 1.2 (≈ 3.57 nM) |  |  |
| C1CC1CNC1CCC2(CC1)OOC1(O2)C2CC3CC(C2)CC1C3 (stereo not drawn) [OZ184] | 54 | 97 | 59 | 6.7 days | 8.7 days | 7.0 days | 1.4 ng/mL (≈ 4.2 nM) | 1.0 ng/mL (≈ 3 nM) |  |  |  |  |  |  |
| O=C1c2ccccc2S(=O)(=O)N1C[C@H]1CC[C@]2(CC1)OOC1(O2)C2CC3CC(C2)CC1C3 (stereo partly drawn) [OZ212] | 66 | 59 | 25 | 6.7 days | 8.0 days | 6.7 days | 2.9 ng/mL (≈ 6.31 nM) | 2.7 ng/mL (≈ 5.88 nM) |  |  |  |  |  |  |
| NC(=O)C(=O)NC[C@H]1CC[C@]2(CC1)OOC1(O2)C2CC3CC(C2)CC1C3 (stereo partly drawn) [OZ268] | 99.86 | 99.92 | 99.47 | 9.3 days | 9.7 days | 13.3 days | 0.71 ng/mL (≈ 1.95 nM) | 0.44 ng/mL (≈ 1.21 nM) |  |  |  |  |  |  |
| c1ccc(C2(c3ccccc3)OOC3(O2)C2CC4CC(C2)CC3C4)cc1 (stereo not drawn) [OZ42] | 68 | 92 |  | 6.0 days | 7.0 days |  | 2.6 ng/mL (≈ 7.46 nM) | 2.3 ng/mL (≈ 6.6 nM) |  |  |  |  |  |  |
| O=C([C@H]1CC[C@]2(CC1)OO[C@]1(O2)C2CC3CC(C2)CC1C3)N1CCNCC1 [OZ368] |  |  |  |  |  |  | 0.43 ng/mL (≈ 1.14 nM) | 0.63 ng/mL (≈ 1.67 nM) | 99.94% | 9.0 days |  |  | 99 | 9.2 |
| OC1(Cc2ccccn2)CCC2(CC1)OOC1(O2)C2CC3CC(C2)CC1C3 (stereo not drawn) [OZ275] |  |  |  |  |  |  | 0.74 ng/mL (≈ 1.99 nM) | 0.66 ng/mL (≈ 1.78 nM) | 68/ND % | 7.3/ND days |  |  |  |  |
| C=C1COC2(CCC3(CC2)OOC2(O3)C3CC4CC(C3)CC2C4)OC1 (stereo not drawn) [OZ128] | 99.93 | 99.98 | 99.95 | 8.3 days | 11.7 days | 8.7 days | 1.1 ng/mL (≈ 3.16 nM) | 0.59 ng/mL (≈ 1.69 nM) |  |  |  |  |  |  |
